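Protocol summary: plate cells (96-well), add compound at 5 concentrations, incubate 48 h, interpolate endpoints linearly. GI50 = concentration required for 50% inhibition of growth. TGI marks complete inhibition of growth.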
What was measured:
Test in all cases: inhibition of tumour cell growth, NCI panel, 48 h
786-0 renal = system: 786-0 renal
A498 renal = system: A498 renal
A549 NSCLC = system: A549 NSCLC
ACHN renal = system: ACHN renal
BT-549 breast = system: BT-549 breast
CAKI-1 renal = system: CAKI-1 renal
CCRF-CEM leukemia = system: CCRF-CEM leukemia
COLO 205 colon = system: COLO 205 colon
DU-145 prostate = system: DU-145 prostate
EKVX NSCLC = system: EKVX NSCLC
HCC-2998 colon = system: HCC-2998 colon
HCT-116 colon = system: HCT-116 colon
HCT-15 colon = system: HCT-15 colon
HL-60(TB) leukemia = system: HL-60(TB) leukemia
HOP-62 NSCLC = system: HOP-62 NSCLC
HOP-92 NSCLC = system: HOP-92 NSCLC
HS 578T breast = system: HS 578T breast
HT29 colon = system: HT29 colon
IGROV1 ovarian = system: IGROV1 ovarian
K-562 leukemia = system: K-562 leukemia
KM12 colon = system: KM12 colon
LOX IMVI melanoma = system: LOX IMVI melanoma
M14 melanoma = system: M14 melanoma
MALME-3M melanoma = system: MALME-3M melanoma
MCF7 breast = system: MCF7 breast
MDA-MB-231 breast = system: MDA-MB-231 breast
MDA-MB-435 = system: MDA-MB-435
MOLT-4 leukemia = system: MOLT-4 leukemia
NCI-H226 lung = system: NCI-H226 lung
NCI-H23 lung = system: NCI-H23 lung
NCI-H460 lung = system: NCI-H460 lung
NCI-H522 lung = system: NCI-H522 lung
NCI/ADR-RES ovarian = system: NCI/ADR-RES ovarian
OVCAR-3 ovarian = system: OVCAR-3 ovarian
OVCAR-4 ovarian = system: OVCAR-4 ovarian
OVCAR-5 ovarian = system: OVCAR-5 ovarian
OVCAR-8 ovarian = system: OVCAR-8 ovarian
PC-3 prostate = system: PC-3 prostate
RPMI-8226 leukemia = system: RPMI-8226 leukemia
SF-268 CNS = system: SF-268 CNS
SF-295 CNS = system: SF-295 CNS
SF-539 CNS = system: SF-539 CNS
SK-MEL-2 melanoma = system: SK-MEL-2 melanoma
SK-MEL-28 melanoma = system: SK-MEL-28 melanoma
SK-MEL-5 melanoma = system: SK-MEL-5 melanoma
SK-OV-3 ovarian = system: SK-OV-3 ovarian
SN12C renal = system: SN12C renal
SNB-19 CNS = system: SNB-19 CNS
SNB-75 CNS = system: SNB-75 CNS
SR leukemia = system: SR leukemia
SW-620 colon = system: SW-620 colon
T-47D breast = system: T-47D breast
TK-10 renal = system: TK-10 renal
U251 CNS = system: U251 CNS
UACC-257 melanoma = system: UACC-257 melanoma
UACC-62 melanoma = system: UACC-62 melanoma
UO-31 renal = system: UO-31 renal

N#Cc1cnc2ccc(-c3cnc4n[nH]nc4c3)cc2c1N1CCc2cc(F)c(Cl)cc21
GI50 (786-0 renal): 3.55 µM
TGI (786-0 renal): > 100 µM
GI50 (A498 renal): 1.87 µM
TGI (A498 renal): 6.69 µM
GI50 (A549 NSCLC): 3.92 µM
TGI (A549 NSCLC): 72.6 µM
GI50 (ACHN renal): 3.62 µM
TGI (ACHN renal): 15.3 µM
GI50 (BT-549 breast): 2.31 µM
TGI (BT-549 breast): 14.6 µM
GI50 (CAKI-1 renal): 2.99 µM
TGI (CAKI-1 renal): 25.2 µM
GI50 (CCRF-CEM leukemia): 3.69 µM
TGI (CCRF-CEM leukemia): 21.1 µM
GI50 (COLO 205 colon): 9.19 µM
TGI (COLO 205 colon): 34.3 µM
GI50 (DU-145 prostate): 4.25 µM
TGI (DU-145 prostate): 66 µM
GI50 (EKVX NSCLC): 3.26 µM
TGI (EKVX NSCLC): 18.5 µM
GI50 (HCC-2998 colon): 2.85 µM
TGI (HCC-2998 colon): 14.9 µM
GI50 (HCT-116 colon): 6.44 µM
TGI (HCT-116 colon): 25.3 µM
GI50 (HCT-15 colon): 2.71 µM
TGI (HCT-15 colon): 14 µM
GI50 (HL-60(TB) leukemia): 11.5 µM
TGI (HL-60(TB) leukemia): 43.6 µM
GI50 (HOP-62 NSCLC): 3.45 µM
TGI (HOP-62 NSCLC): 38.7 µM
GI50 (HOP-92 NSCLC): 1.83 µM
TGI (HOP-92 NSCLC): 7.97 µM
GI50 (HS 578T breast): 1.18 µM
TGI (HS 578T breast): 5.26 µM
GI50 (HT29 colon): 5.73 µM
TGI (HT29 colon): 35 µM
GI50 (IGROV1 ovarian): 1.42 µM
TGI (IGROV1 ovarian): 6.19 µM
GI50 (K-562 leukemia): 4.67 µM
TGI (K-562 leukemia): > 100 µM
GI50 (KM12 colon): 4.66 µM
TGI (KM12 colon): 32.3 µM
GI50 (LOX IMVI melanoma): 1.76 µM
TGI (LOX IMVI melanoma): 11.4 µM
GI50 (M14 melanoma): 5.15 µM
TGI (M14 melanoma): 38.2 µM
GI50 (MALME-3M melanoma): 2.91 µM
TGI (MALME-3M melanoma): 16.4 µM
GI50 (MCF7 breast): 1.92 µM
TGI (MCF7 breast): 14 µM
GI50 (MDA-MB-231 breast): 3.64 µM
TGI (MDA-MB-231 breast): 23.3 µM
GI50 (MDA-MB-435): 3.73 µM
TGI (MDA-MB-435): 28.6 µM
GI50 (MOLT-4 leukemia): 2.8 µM
TGI (MOLT-4 leukemia): 11.4 µM
GI50 (NCI-H226 lung): 2.2 µM
TGI (NCI-H226 lung): 20 µM
GI50 (NCI-H23 lung): 3.16 µM
TGI (NCI-H23 lung): 16.1 µM
GI50 (NCI-H460 lung): 3.48 µM
TGI (NCI-H460 lung): 17.4 µM
GI50 (NCI-H522 lung): 2.82 µM
TGI (NCI-H522 lung): 16.7 µM
GI50 (NCI/ADR-RES ovarian): 12.8 µM
TGI (NCI/ADR-RES ovarian): 53.3 µM
GI50 (OVCAR-3 ovarian): 2.97 µM
TGI (OVCAR-3 ovarian): 24 µM
GI50 (OVCAR-4 ovarian): 2.66 µM
TGI (OVCAR-4 ovarian): 22.3 µM
GI50 (OVCAR-5 ovarian): 4.07 µM
TGI (OVCAR-5 ovarian): 65.1 µM
GI50 (OVCAR-8 ovarian): 4.62 µM
TGI (OVCAR-8 ovarian): > 100 µM
GI50 (PC-3 prostate): 3.11 µM
TGI (PC-3 prostate): 25.5 µM
GI50 (RPMI-8226 leukemia): 3.02 µM
TGI (RPMI-8226 leukemia): 42.5 µM
GI50 (SF-268 CNS): 3.22 µM
TGI (SF-268 CNS): 84.6 µM
GI50 (SF-295 CNS): 2.54 µM
TGI (SF-295 CNS): 13.3 µM
GI50 (SF-539 CNS): 3.17 µM
TGI (SF-539 CNS): 18.9 µM
GI50 (SK-MEL-2 melanoma): 2.74 µM
TGI (SK-MEL-2 melanoma): 12.7 µM
GI50 (SK-MEL-28 melanoma): 3.68 µM
TGI (SK-MEL-28 melanoma): 33.6 µM
GI50 (SK-MEL-5 melanoma): 2.83 µM
TGI (SK-MEL-5 melanoma): 8.47 µM
GI50 (SK-OV-3 ovarian): 3.52 µM
TGI (SK-OV-3 ovarian): 19.2 µM
GI50 (SN12C renal): 3.27 µM
TGI (SN12C renal): 41.7 µM
GI50 (SNB-19 CNS): 3.9 µM
TGI (SNB-19 CNS): 77.9 µM
GI50 (SNB-75 CNS): 0.395 µM
TGI (SNB-75 CNS): 5.52 µM
GI50 (SR leukemia): 2.3 µM
TGI (SR leukemia): 25.8 µM
GI50 (SW-620 colon): 5.2 µM
TGI (SW-620 colon): 24.6 µM
GI50 (T-47D breast): 1.68 µM
TGI (T-47D breast): 8 µM
GI50 (TK-10 renal): 3.23 µM
TGI (TK-10 renal): 28.6 µM
GI50 (U251 CNS): 4.66 µM
TGI (U251 CNS): 86.6 µM
GI50 (UACC-257 melanoma): 5.03 µM
TGI (UACC-257 melanoma): 44.2 µM
GI50 (UACC-62 melanoma): 2.63 µM
TGI (UACC-62 melanoma): 12.6 µM
GI50 (UO-31 renal): 1.13 µM
TGI (UO-31 renal): 11.1 µM
